We go through 17 molecules from patent publication US9796711B2, “Substituted pyrazolo[3,4-b]pyridin-6-carboxylic acids and method of use” (AbbVie S.àr.l., priority 2015, dated 2017).

Structures are written as SMILES.

The target in assay [1] is T1, ΔF508-CFTR (Homo sapiens, UniProt P13569, DEL508-508).
T1 construct: host or cells: CFBE41o-, doxycycline-inducible
Briefly: CFTR cell surface levels using HRP-tagged ΔF508-CFTR expressing CFBE cells, in the presence of a co-corrector. The format is cell-based. As to conditions: HRP-tagged ΔF508-CFTR expressing CFBE cells, in the presence of 3 μM co-corrector; for EC50: read-out: EC50. An outline of the steps:
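Cells were seeded with 0.5 μg/mL doxycycline and held 68 h at 37 °C. Test compounds plus 3 μM co-corrector (final 0.1% DMSO) were then added for 20 h at 33 °C. Washed cells received HRP substrate, and luminescence was normalized between DMSO and 3 μM co-corrector controls.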

In assay [2] the target is T1, ΔF508-CFTR. The assay is described as follows: CFTR cell surface levels using HRP-tagged ΔF508-CFTR expressing CFBE cells, intrinsic corrector capacity. The format is cell-based. As to conditions: for EC50: read-out: EC50. An outline of the steps: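 Here the cells express ΔF508-CFTR with horseradish peroxidase inserted in extracellular loop 4, so only rescued channel at the surface gives luminescent signal. Compounds act on their own, 20 h at the reduced temperature of 33 °C; values are percent activity relative to DMSO and a 3 μM corrector.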

[3] abbreviates: HRP-tagged ΔF508-CFTR CFBE41o- cells, compounds alone (intrinsic corrector capacity), 20 hours at 33° C., positive control 3 μM corrector.
[4] abbreviates: HRP-tagged ΔF508-CFTR CFBE41o- cells, compounds alone (intrinsic corrector capacity), 20 hours at 33° C.
Setting [5] is: HRP-tagged ΔF508-CFTR expressing CFBE cells, intrinsic corrector capacity (no co-corrector), 33° C., 20 hours.
The mark [6] stands for this setting: HRP-tagged ΔF508-CFTR CFBE cells, compound alone (intrinsic corrector capacity), 20 hours at 33° C.

T1 sequence (P13569 with tags, fused parts or gaps DEL508-508): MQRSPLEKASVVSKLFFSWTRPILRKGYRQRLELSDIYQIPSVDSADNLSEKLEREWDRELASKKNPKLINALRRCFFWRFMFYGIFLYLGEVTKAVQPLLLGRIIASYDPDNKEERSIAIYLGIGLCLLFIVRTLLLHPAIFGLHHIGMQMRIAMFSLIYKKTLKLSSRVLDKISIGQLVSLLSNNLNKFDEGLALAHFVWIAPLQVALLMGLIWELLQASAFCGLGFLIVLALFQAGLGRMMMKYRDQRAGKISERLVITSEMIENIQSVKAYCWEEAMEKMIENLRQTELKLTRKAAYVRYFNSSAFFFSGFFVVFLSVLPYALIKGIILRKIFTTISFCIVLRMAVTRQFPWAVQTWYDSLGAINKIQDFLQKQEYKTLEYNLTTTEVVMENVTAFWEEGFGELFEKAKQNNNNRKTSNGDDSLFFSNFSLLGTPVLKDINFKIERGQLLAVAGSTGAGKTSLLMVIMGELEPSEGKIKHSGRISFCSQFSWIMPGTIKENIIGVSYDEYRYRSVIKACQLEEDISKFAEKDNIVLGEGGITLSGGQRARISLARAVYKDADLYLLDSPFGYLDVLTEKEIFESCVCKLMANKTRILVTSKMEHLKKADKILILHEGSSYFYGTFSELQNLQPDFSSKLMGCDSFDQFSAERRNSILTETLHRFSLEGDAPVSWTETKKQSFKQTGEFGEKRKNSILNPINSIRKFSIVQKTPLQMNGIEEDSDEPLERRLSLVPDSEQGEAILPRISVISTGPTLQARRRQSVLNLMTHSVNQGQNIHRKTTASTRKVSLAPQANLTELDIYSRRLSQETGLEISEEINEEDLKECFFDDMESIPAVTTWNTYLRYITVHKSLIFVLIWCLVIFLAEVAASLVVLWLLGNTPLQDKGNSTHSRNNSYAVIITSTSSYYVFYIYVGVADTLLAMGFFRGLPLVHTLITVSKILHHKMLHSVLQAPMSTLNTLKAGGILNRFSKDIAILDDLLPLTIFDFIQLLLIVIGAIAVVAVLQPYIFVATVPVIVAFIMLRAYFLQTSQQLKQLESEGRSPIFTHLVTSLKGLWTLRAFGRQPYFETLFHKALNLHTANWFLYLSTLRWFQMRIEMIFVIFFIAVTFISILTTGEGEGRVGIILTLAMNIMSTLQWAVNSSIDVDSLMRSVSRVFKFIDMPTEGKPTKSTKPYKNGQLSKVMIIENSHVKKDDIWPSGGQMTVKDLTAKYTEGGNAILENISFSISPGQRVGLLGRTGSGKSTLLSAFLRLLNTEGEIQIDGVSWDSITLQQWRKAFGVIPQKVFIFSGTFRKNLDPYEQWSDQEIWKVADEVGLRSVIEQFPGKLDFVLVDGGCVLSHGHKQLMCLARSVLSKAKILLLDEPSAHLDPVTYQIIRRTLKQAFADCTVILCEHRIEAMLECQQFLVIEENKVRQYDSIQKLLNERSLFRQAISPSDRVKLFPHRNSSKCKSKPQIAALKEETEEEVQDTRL

In general, EC50 refers to the concentration needed to bring the measured effect to its halfway point. Turning to `Cc1nn(-c2ccccc2)c2nc(C(=O)O)cc(OCCC3CC(F)(F)C3)c12` [compound 347, 4-[2-(3,3-difluorocyclobutyl)ethoxy]-3-methyl-1-phenyl-1H-pyrazolo[3,4-b]pyridine-6-carboxylic acid], the “% Activation” value is on record as 259.55% at ΔF508-CFTR [1] and 79.835% on ΔF508-CFTR [2] (setting [3]). Moreover, the EC50 at ΔF508-CFTR [1] and on ΔF508-CFTR [2] (setting [4]) was 1410 nM each time.
Turning to `O=C(O)c1cc(N2C[C@@H](F)C[C@H]2CO)c2c(C3CCC3)nn(-c3ccccc3)c2n1` [compound 507, 3-cyclobutyl-4-[(2S,4S)-4-fluoro-2-(hydroxymethyl)pyrrolidin-1-yl]-1-phenyl-1H-pyrazolo[3,4-b]pyridine-6-carboxylic acid], the “% Activation” value is 218.3% at ΔF508-CFTR [1] and 132.8% on ΔF508-CFTR [2] (setting [5]). Besides, the figures for the EC50 at ΔF508-CFTR [1] and on ΔF508-CFTR [2] (setting [5]) were 2520 nM and 2170 nM, respectively.
Consider `COCCN(CCOC)c1ccc(-c2cc(C(=O)O)nc3c2c(C(C)C)nn3-c2ccnc(N3CCOCC3)c2)cn1` [compound 524, 4-{6-[bis(2-methoxyethyl)amino]pyridin-3-yl}-1-[2-(morpholin-4-yl)pyridin-4-yl]-3-(propan-2-yl)-1H-pyrazolo[3,4-b]pyridine-6-carboxylic acid], for which, at ΔF508-CFTR [1], the “% Activation” value came to 354.25% and the EC50 was 261 nM. For the same molecule, at ΔF508-CFTR [2] (setting [5]), the “% Activation” value came out at 134.7% and the EC50 amounted to 454 nM.
For the molecule `O=C(O)c1cc(N2CC3(CCCCO3)C2)c2c(C3CCC3)nn(-c3ccccc3)c2n1` [compound 424, 3-cyclobutyl-4-(5-oxa-2-azaspiro[3.5]nonan-2-yl)-1-phenyl-1H-pyrazolo[3,4-b]pyridine-6-carboxylic acid], on ΔF508-CFTR [1], the “% Activation” value was 254.9% and the EC50 stood at 829 nM. Further, on ΔF508-CFTR [2] (setting [5]), the “% Activation” value turned out to be 86.32% and the EC50 came to 1080 nM.
The like results for `CC(C)c1nn(-c2ccc(F)cc2)c2nc(C(=O)O)cc(OCC3(C)CC(F)(F)C3)c12` [compound 652, 4-[(3,3-difluoro-1-methylcyclobutyl)methoxy]-1-(4-fluorophenyl)-3-(propan-2-yl)-1H-pyrazolo[3,4-b]pyridine-6-carboxylic acid] were, in that order, 310.6%, 203 nM, 130.6% and 334 nM.
For the molecule `O=C(O)c1cc(N2CCC(CN3CCC(F)(F)C3)CC2)c2c(C3CCC3)nn(-c3ccccc3)c2n1` [compound 828, 3-cyclobutyl-4-{4-[(3,3-difluoropyrrolidin-1-yl)methyl]piperidin-1-yl}-1-phenyl-1H-pyrazolo[3,4-b]pyridine-6-carboxylic acid], the “% Activation” value was determined as 518.35% at ΔF508-CFTR [1] and 283.5% at ΔF508-CFTR [2] (setting [5]). For the same molecule, the EC50 on ΔF508-CFTR [1] was determined as 47.9 nM; on ΔF508-CFTR [2] (setting [5]) it was 83.2 nM.
As to `CC(C)c1nn(-c2cccc(F)c2)c2nc(C(=O)O)cc(-c3ccc(N4CCC(C#N)CC4)cc3)c12` [compound 286, 4-[4-(4-cyanopiperidin-1-yl)phenyl]-1-(3-fluorophenyl)-3-(propan-2-yl)-1H-pyrazolo[3,4-b]pyridine-6-carboxylic acid], the “% Activation” value on ΔF508-CFTR [1] amounted to 448.23%; at ΔF508-CFTR [2] (setting [3]), 259.83%. In addition, the EC50 turned out to be 256 nM at ΔF508-CFTR [1] and 544 nM at ΔF508-CFTR [2] (setting [4]).
Take `CO[C@@H]1CCN(c2cc(C(=O)O)nc3c2c(C2CCC2)nn3-c2ccccc2)C1` [compound 522, 3-cyclobutyl-4-[(3R)-3-methoxypyrrolidin-1-yl]-1-phenyl-1H-pyrazolo[3,4-b]pyridine-6-carboxylic acid]: at ΔF508-CFTR [1], the “% Activation” value turned out to be 294.1% and the EC50 was 1080 nM. Also, on ΔF508-CFTR [2] (setting [5]), the “% Activation” value worked out at 114% and the EC50 came out at 479 nM.
Take `COC1CCN(c2ccc(-c3cc(C(=O)O)nc4c3c(C(C)C)nn4C3CCCCC3)cn2)C1` (stereo not drawn) [compound 224, 1-cyclohexyl-4-[6-(3-methoxypyrrolidin-1-yl)pyridin-3-yl]-3-(propan-2-yl)-1H-pyrazolo[3,4-b]pyridine-6-carboxylic acid]: the “% Activation” value at ΔF508-CFTR [1] came to 396.65%; on ΔF508-CFTR [2] (setting [3]), 189.6%. The figures for the EC50 on ΔF508-CFTR [1] and on ΔF508-CFTR [2] (setting [4]) were 896 nM and 1180 nM, respectively.
With `CN1CCN(CCCOc2cc(C(=O)O)nc3c2c(C2CCC2)nn3-c2ccccc2)CC1` [compound 634, 3-cyclobutyl-4-[3-(4-methylpiperazin-1-yl)propoxy]-1-phenyl-1H-pyrazolo[3,4-b]pyridine-6-carboxylic acid], the figures for the “% Activation” value at ΔF508-CFTR [1] and on ΔF508-CFTR [2] (setting [5]) were 294.7% and 122.2%, respectively. Besides, the EC50 was found to be 2570 nM at ΔF508-CFTR [1] and 3330 nM on ΔF508-CFTR [2] (setting [5]).
For `O=C(O)c1cc(N2CCC(N3CCOCC3)CC2)c2c(C3CCC3)nn(-c3ccc(OCCF)nc3)c2n1` [compound 917], on ΔF508-CFTR [1], the “% Activation” value stood at 306.95% and the EC50 was found to be 1670 nM. Moreover, at ΔF508-CFTR [2] (setting [6]), the “% Activation” value is 116.67% and the EC50 stood at 1660 nM.
Turning to `O=C(O)c1cc(N2CCC(CN3CC4(CCCOC4)C3)CC2)c2c(C3CCC3)nn(-c3ccccc3)c2n1` [compound 836, 3-cyclobutyl-4-{4-[(6-oxa-2-azaspiro[3.5]nonan-2-yl)methyl]piperidin-1-yl}-1-phenyl-1H-pyrazolo[3,4-b]pyridine-6-carboxylic acid], the results for the “% Activation” value at ΔF508-CFTR [1] and on ΔF508-CFTR [2] (setting [5]) were 325.3% and 137.3%, respectively. Also, the concentration for a half-maximal effect (EC50) on ΔF508-CFTR [1] worked out at 409 nM; at ΔF508-CFTR [2] (setting [5]) it was 486 nM.
The like results for `COCC(C)N1CCN(c2cc(C(=O)O)nc3c2c(C2CCC2)nn3-c2ccccc2)CC1` (stereo not drawn) [compound 682, 3-cyclobutyl-4-[4-(1-methoxypropan-2-yl)piperazin-1-yl]-1-phenyl-1H-pyrazolo[3,4-b]pyridine-6-carboxylic acid] were, in that order, 368.9%, 172.9%, 116 nM and 180 nM.
`Cc1nn(-c2cccc(C(N)=O)c2)c2nc(C(=O)O)cc(-c3ccc(N4CCOCC4)cc3)c12` [compound 59, 1-(3-carbamoylphenyl)-3-methyl-4-[4-(morpholin-4-yl)phenyl]-1H-pyrazolo[3,4-b]pyridine-6-carboxylic acid]: the “% Activation” value at ΔF508-CFTR [2] (setting [3]) came to 13.69%. In addition, the EC50 on ΔF508-CFTR [2] (setting [4]) was more than 10000 nM.
The corresponding values for `CC(C)c1nn(-c2cccc(C#N)c2)c2nc(C(=O)O)cc(-c3ccc(N4CCOCC4)cc3)c12` [compound 49, 1-(3-cyanophenyl)-4-[4-(morpholin-4-yl)phenyl]-3-(propan-2-yl)-1H-pyrazolo[3,4-b]pyridine-6-carboxylic acid] are 107% and 1110 nM.
The like results for `Cc1nn(-c2cc(Cl)cc(Cl)c2)c2nc(C(=O)O)cc(-c3ccc(N4CCOCC4)cc3)c12` [compound 44, 1-(3,5-dichlorophenyl)-3-methyl-4-[4-(morpholin-4-yl)phenyl]-1H-pyrazolo[3,4-b]pyridine-6-carboxylic acid] were, in that order, 117.2% and 2200 nM.
The like results for `Cc1nn(-c2ccccc2)c2nc(C(=O)O)cc(-c3ccc(N4CCN(C)CC4)cc3)c12` [compound 9, 3-methyl-4-[4-(4-methylpiperazin-1-yl)phenyl]-1-phenyl-1H-pyrazolo[3,4-b]pyridine-6-carboxylic acid] were, in that order, 31.76% and 3340 nM.
